These compounds were tested against Beta-secretase 1 (Homo sapiens, UniProt P56817) (assay: D3R2027).
Excerpt: D3R2027

Chain of Beta-secretase 1 (P56817 whole entry): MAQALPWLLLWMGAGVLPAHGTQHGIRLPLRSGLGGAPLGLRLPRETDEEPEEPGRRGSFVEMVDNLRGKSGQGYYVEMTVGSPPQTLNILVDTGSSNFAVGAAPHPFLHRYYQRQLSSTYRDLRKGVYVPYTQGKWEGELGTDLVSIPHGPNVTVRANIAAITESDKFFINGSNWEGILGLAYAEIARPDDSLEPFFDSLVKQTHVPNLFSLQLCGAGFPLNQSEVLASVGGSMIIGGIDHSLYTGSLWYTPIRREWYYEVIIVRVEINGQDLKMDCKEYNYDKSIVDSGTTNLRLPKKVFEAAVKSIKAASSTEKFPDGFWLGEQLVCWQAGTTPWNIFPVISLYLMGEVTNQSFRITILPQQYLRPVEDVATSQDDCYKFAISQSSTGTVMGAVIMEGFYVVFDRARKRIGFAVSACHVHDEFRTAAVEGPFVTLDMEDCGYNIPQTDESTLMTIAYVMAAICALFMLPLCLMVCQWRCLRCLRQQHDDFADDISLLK

Going from `CC(C)c1ccnc(C2(NC[C@@H](O)[C@@H]3C[C@H](C)CCCCCCCOc4cc(cc(Cl)n4)C(=O)N3)CC2)c1` [BACE_52] to `C[C@@H]1CCCCCCCNc2cc(cc(-c3ncco3)c2)C(=O)N[C@H]([C@H](O)CNC2(c3cc(C(C)(C)C)ccn3)CC2)C1` [BACE_59], the IC50 falls from 7.5 nM to 1.7 nM (4.4-fold).

Compared with `CC(C)c1cccc(CNC[C@@H](O)[C@@H]2C[C@H](C)CCCCCCCN(C)c3cc(ccn3)C(=O)N2)c1` [BACE_42], `CC(C)c1cccc(CNC[C@@H](O)[C@@H]2C[C@H](C)CCCCCCCCc3cc(ccn3)C(=O)N2)c1` [BACE_53] is 14-fold higher in IC50: 740 nM for the first, 10000 nM for the second. The first is the more potent here.

First: Cc1cc2cc(n1)NCCCCCCC[C@@H](C)C[C@@H]([C@H](O)CNCc1cccc(C(C)C)c1)NC2=O [BACE_41]
Second: COc1cc2cc(n1)NCCCCCCC[C@@H](C)C[C@@H]([C@H](O)CNCc1cccc(C(C)C)c1)NC2=O [BACE_43]
The IC50 of the first is 2.1-fold higher: 29 nM for the first, 14 nM for the second.

Compared with `C[C@@H]1CCCCCCCCC(=O)N(C)[C@@H](C)C(=O)N[C@H]([C@H](O)CNCc2cc(CC(C)(C)C)on2)C1` [BACE_29], `CC(C)Oc1ccc(C2CC2)cc1CNC[C@@H](O)[C@@H]1C[C@H](C)CCCCCCOCC(=O)N(C)[C@@H](C)C(=O)N1` [BACE_36] is 430-fold higher in IC50: 3.5 nM for the first, 1500 nM for the second. The first is the more potent here.

Compared with `CC(C)Cc1cncc(C(C)(C)NC[C@@H](O)[C@@H]2Cc3cccc(c3)OCCCCNc3cccc(c3)C(=O)N2)c1` [BACE_123], `CC(C)c1cccc(C(C)(C)NC[C@@H](O)[C@@H]2Cc3cccc(c3)OCCCCNc3cccc(n3)C(=O)N2)c1` [BACE_122] is 8.8-fold higher in IC50: 260 nM for the first, 2300 nM for the second.

First: COCc1cc2cc(c1)C(=O)N[C@H]([C@H](O)CNCc1cc(OC)cc(OC)c1)C[C@H](C)CCCCCCCN2 [BACE_61]
Second: CC(C)c1cccc(CNC[C@@H](O)[C@@H]2C[C@@H]3CC[C@H](CCCCCNc4cc(cc(C(F)(F)F)c4)C(=O)N2)C3)c1 [BACE_71]
The IC50 of the first is 4.4-fold higher: 1500 nM for the first, 340 nM for the second.

First: COCc1cc2cc(c1)C(=O)N[C@H]([C@H](O)CNCc1cccc(C(C)C)c1)Cc1cccc(c1)OCCCCO2 [BACE_15]
Second: Cc1cc2cc(n1)CCCCCc1cccc(c1)C[C@@H]([C@H](O)CNCc1cccc(C(C)C)c1)NC2=O [BACE_113]
The IC50 of the first is 22-fold lower: 72 nM for the first, 1600 nM for the second. The first is the more potent here.

Going from `Cc1cc2cc(n1)OCCCCc1cccc(c1)C[C@@H]([C@H](O)CNC(C)(C)c1cccc(C(C)C)c1)NC2=O` [BACE_106] to `COc1cc2cc(c1)C1=N[C@@H](C[C@H](C)CCCCCCCN2)[C@H](CO)O1` [BACE_142], the IC50 rises from 150 nM to 4500 nM (30-fold).
